Assay results: patent US10294234B2, “HIV inhibitor compounds” (priority 2017, dated 2019)
Where two headings read alike, the source gives them in different places.

How the values were obtained:
[1] = test system: HIV-1 (IIIB) in MT-4 cells; assay: MT-4 HIV assay; type: cell-based; conditions: Human immunodeficiency virus 1, MT4, 120 h
How it was run: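 MT-4 cells infected with HIV-1 IIIB (1:250 stock dilution) were incubated with 1:3 serially diluted compounds in RPMI with 10% FBS for 5 days at 37 °C. Cell Titer Glo luminescence was the readout. Plates included mock-infected wells, no-drug wells and 5 uM AZT controls.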

[2] = How it was run: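 Test compounds at 1 uM incubated in duplicate with dog, rat and human liver microsomes (0.5 mg/mL protein) plus NADPH-regenerating system; sampled at 2, 12, 25, 45 and 65 minutes. Parent remaining monitored by LC/MS/MS; Clint calculated from in vitro t1/2.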
[3] = HIV-1 (IIIB), MT-4 cells, 5 days, Cell Titer Glo, read-out: EC50
[4] = human liver microsomes 0.5 mg/mL, 1 uM compound, NADPH
[5] = rat liver microsomes 0.5 mg/mL, 1 uM compound, NADPH

Human Pred Cl. [2, 4] [L/H/kg] | Rat. Pred. Cl. [2, 5] [L/H/kg] | Dog. Pred. Cl. ([2]; dog liver microsomes 0.5 mg/mL, 1 uM compound, NADPH) [L/H/kg] | SMILES | EC50 [1, 3] [nM] | Human Pred Cl. ([2]; human, microsomes) [L/H/kg] | Rat. Pred. Cl. ([2]; rat, microsomes) [L/H/kg] | Dog. Pred. Cl. ([2]; dog, microsomes) [L/H/kg] | EC50 [1] [nM]
0.18 | 0.69 | – | COC(=O)N[C@H](C(=O)N[C@@H](Cc1ccc(C#Cc2ccc(N3C[C@@H]4C[C@H]3CN4C3COC3)nc2)cc1)[C@@H](O)CN(Cc1c(F)cc(-c2ccn(C(F)F)n2)cc1F)NC(=O)[C@@H](NC(=O)OC)C(C)(C)C(F)(F)F)C(C)(C)C(F)(F)F [Example 174, Methyl ((5S,8S,9S,14S)-11-(4-(1-(difluoromethyl)-1H-pyrazol-3-yl)-2,6-difluorobenzyl)-16,16,16-trifluoro-9-hydroxy-15,15-dimethyl-8-(4-((6-((1S,4S)-5-(oxetan-3-yl)-2,5-diazabicyclo[2.2.1]heptan-2-yl)pyridin-3-yl)ethynyl)benzyl)-3,6,13-trioxo-5-(1,1,1-trifluoro-2-methylpropan-2-yl)-2-oxa-4,7,11,12-tetraazahexadecan-14-yl)carbamate] | 2.33 | – | – | – | –
– | – | – | COC(=O)N[C@H](C(=O)N[C@@H](Cc1ccc(C#Cc2ccc(N3CC4CCC(C3)N4C(=O)[C@@H]3CCCO3)nc2)cc1)[C@@H](O)CN(Cc1c(F)cc(-c2cnn(C(F)F)c2)cc1F)NC(=O)[C@@H](NC(=O)OC)C(C)(C)C(F)(F)F)C(C)(C)C(F)(F)F [Example 18, Methyl ((5S,8S,9S,14S)-11-(4-(1-(difluoromethyl)-1H-pyrazol-4-yl)-2,6-difluorobenzyl)-16,16,16-trifluoro-9-hydroxy-15,15-dimethyl-3,6,13-trioxo-8-(4-((6-(8-((S)-tetrahydrofuran-2-carbonyl)-3,8-diazabicyclo[3.2.1]octan-3-yl)pyridin-3-yl)ethynyl)benzyl)-5-(1,1,1-trifluoro-2-methylpropan-2-yl)-2-oxa-4,7,11,12-tetraazahexadecan-14-yl)carbamate] | 5 | 0.13 | 1.03 | – | –
– | – | – | COC(=O)N[C@H](C(=O)N[C@@H](Cc1ccc(-c2ccc3nc(N4CC5CCC(C4)N5C4COC4)ccc3n2)cc1)[C@@H](O)CN(Cc1c(F)cc(-c2ccn(C(F)F)n2)cc1F)NC(=O)[C@@H](NC(=O)OC)C(C)(C)C(F)(F)F)C(C)(C)C(F)(F)F [Example 200, Methyl ((5S,8S,9S,14S)-11-(4-(1-(difluoromethyl)-1H-pyrazol-3-yl)-2,6-difluorobenzyl)-16,16,16-trifluoro-9-hydroxy-15,15-dimethyl-8-(4-(6-(8-(oxetan-3-yl)-3,8-diazabicyclo[3.2.1]octan-3-yl)-1,5-naphthyridin-2-yl)benzyl)-3,6,13-trioxo-5-(1,1,1-trifluoro-2-methylpropan-2-yl)-2-oxa-4,7,11,12-tetraazahexadecan-14-yl)carbamate] | 4.36 | <0.11 | 0.19 | – | –
– | – | – | COC(=O)N[C@H](C(=O)NN(Cc1c(F)cc(-c2ccn(C(F)F)n2)cc1F)C[C@H](O)[C@H](Cc1ccc(-c2cnc(N3CC4CCC(C3)N4C3COC3)nc2)cc1)NC(=O)[C@@H](NC(=O)OC)C(C)(C)C(F)(F)F)C(C)(C)C [Example 192, methyl ((5S,8S,9S,14S)-11-(4-(1-(difluoromethyl)-1H-pyrazol-3-yl)-2,6-difluorobenzyl)-9-hydroxy-15,15-dimethyl-8-(4-(2-(8-(oxetan-3-yl)-3,8-diazabicyclo[3.2.1]octan-3-yl)pyrimidin-5-yl)benzyl)-3,6,13-trioxo-5-(1,1,1-trifluoro-2-methylpropan-2-yl)-2-oxa-4,7,11,12-tetraazahexadecan-14-yl)carbamate] | 2.89 | 0.22 | 0.36 | 1.04 | –
– | – | – | COC(=O)N[C@H](C(=O)NN(Cc1c(F)cc(-c2ccn(C(F)F)n2)cc1F)C[C@H](O)[C@H](Cc1ccc(C#Cc2ccc(N3CC4CCC(C3)N4S(C)(=O)=O)nc2)cc1)NC(=O)[C@@H](NC(=O)OC)C(C)(C)C(F)(F)F)C(C)(C)C [Example 72, Methyl ((5S,8S,9S,14S)-11-(4-(1-(difluoromethyl)-1H-pyrazol-3-yl)-2,6-difluorobenzyl)-9-hydroxy-15,15-dimethyl-8-(4-((6-(8-(methylsulfonyl)-3,8-diazabicyclo[3.2.1]octan-3-yl)pyridin-3-yl)ethynyl)benzyl)-3,6,13-trioxo-5-(1,1,1-trifluoro-2-methylpropan-2-yl)-2-oxa-4,7,11,12-tetraazahexadecan-14-yl)carbamate] | 5.19 | 0.14 | <0.18 | – | –
– | – | – | COCCN1C2CCC1CN(c1ccc(C#Cc3ccc(C[C@H](NC(=O)[C@@H](NC(=O)OC)C(C)(C)C(F)(F)F)[C@@H](O)CN(Cc4c(F)cc(-c5ccn(C(F)F)n5)cc4F)NC(=O)[C@@H](NC(=O)OC)C(C)(C)C(F)(F)F)cc3)cn1)C2 [Example 124, Methyl ((5S,8S,9S,14S)-11-(4-(1-(difluoromethyl)-1H-pyrazol-3-yl)-2,6-difluorobenzyl)-16,16,16-trifluoro-9-hydroxy-8-(4-((6-(8-(2-methoxyethyl)-3,8-diazabicyclo[3.2.1]octan-3-yl)pyridin-3-yl)ethynyl)benzyl)-15,15-dimethyl-3,6,13-trioxo-5-(1,1,1-trifluoro-2-methylpropan-2-yl)-2-oxa-4,7,11,12-tetraazahexadecan-14-yl)carbamate] | 6.32 | <0.11 | 0.5 | – | –
0.16 | 1.01 | 1.66 | COC(=O)N[C@H](C(=O)N[C@@H](Cc1ccc(C#Cc2ccc(N3C[C@H]4C[C@@H]3CN4C3COC3)nc2)cc1)[C@@H](O)CN(Cc1c(F)cc(-c2ccn(CC(F)F)n2)cc1F)NC(=O)[C@@H](NC(=O)OC)C(C)(C)C(F)(F)F)C(C)(C)C(F)(F)F [Example 43, Methyl ((5S,8S,9S,14S)-11-(4-(1-(2,2-difluoroethyl)-1H-pyrazol-3-yl)-2,6-difluorobenzyl)-16,16,16-trifluoro-9-hydroxy-15,15-dimethyl-8-(4-((6-((1R,4R)-5-(oxetan-3-yl)-2,5-diazabicyclo[2.2.1]heptan-2-yl)pyridin-3-yl)ethynyl)benzyl)-3,6,13-trioxo-5-(1,1,1-trifluoro-2-methylpropan-2-yl)-2-oxa-4,7,11,12-tetraazahexadecan-14-yl)carbamate] | – | – | – | – | 2.87
– | – | – | COC(=O)N[C@H](C(=O)N[C@@H](Cc1ccc(C#Cc2ccc(N3CC4CCC(C3)N4C)nc2)cc1)[C@@H](O)CN(Cc1c(F)cc(-c2cnn(C(F)F)c2)cc1F)NC(=O)[C@@H](NC(=O)OC)C(C)(C)C(F)(F)F)C(C)(C)C(F)(F)F [Example 168, Methyl ((5S,8S,9S,14S)-11-(4-(1-(difluoromethyl)-1H-pyrazol-4-yl)-2,6-difluorobenzyl)-16,16,16-trifluoro-9-hydroxy-15,15-dimethyl-8-(4-((6-(8-methyl-3,8-diazabicyclo[3.2.1]octan-3-yl)pyridin-3-yl)ethynyl)benzyl)-3,6,13-trioxo-5-(1,1,1-trifluoro-2-methylpropan-2-yl)-2-oxa-4,7,11,12-tetraazahexadecan-14-yl)carbamate] | 5.48 | 0.19 | 2.42 | – | –
